From patent publication US12371454B2, “Cyclic peptide compound having Kras inhibitory action” (priority 2019, dated 2025)
Positions of bridges follow the written chain, without caps; N, C: chain ends. Non-standard residues stand in square brackets, D forms with d. Residues, ends and D or L forms follow the SMILES beside them. *: point of attachment. hPhe(3-Cl-4-CF3) = N[C@@H](CCc1ccc(C(F)(F)F)c(Cl)c1)C(=O)O; NMeDab(N,N-(CH2CF2CH2)) = CN[C@@H](CCN1CC(F)(F)C1)C(=O)O; NMePhe(4-CF3) = CN[C@@H](Cc1ccc(C(F)(F)F)cc1)C(=O)O; hPhe(4-CF3) = N[C@@H](CCc1ccc(C(F)(F)F)cc1)C(=O)O; NMePhe(3,4-F2) = CN[C@@H](Cc1ccc(F)c(F)c1)C(=O)O; NMePhe(4-Cl) = CN[C@@H](Cc1ccc(Cl)cc1)C(=O)O; NMePhe(2-OMe) = CN[C@@H](Cc1ccccc1OC)C(=O)O; NMePhe(4-Me) = CN[C@@H](Cc1ccc(C)cc1)C(=O)O; NMePhe(4-F) = CN[C@@H](Cc1ccc(F)cc1)C(=O)O; NMeMet(O2) = CN[C@@H](CCS(C)(=O)=O)C(=O)O; Abu(4,4,4-F3) = N[C@@H](CC(F)(F)F)C(=O)O; NMeGly(cPent) = CN[C@H](C(=O)O)C1CCCC1; Phe(3-I) = N[C@@H](Cc1cccc(I)c1)C(=O)O; NMeCha = CN[C@@H](CC1CCCCC1)C(=O)O; NMeChg = CN[C@H](C(=O)O)C1CCCCC1; NMeF = CN[C@@H](Cc1ccccc1)C(=O)O; NMeI = CC[C@H](C)[C@H](NC)C(=O)O; NMeD = CN[C@@H](CC(=O)O)C(=O)O; NMeL = CN[C@@H](CC(C)C)C(=O)O; NMeV = CN[C@H](C(=O)O)C(C)C; d(β3hA) = C[C@@H](N)CC(=O)O; NMeA = CN[C@@H](C)C(=O)O; Nle = CCCC[C@H](N)C(=O)O; Piperidide = C1CCN(*)CC1; dNMeA = CN[C@H](C)C(=O)O; Ac5c = NC1(C(=O)O)CCCC1; Aze = O=C(O)[C@@H]1CCN1; X76 = Clc1cccc(C*)c1; Sar = CNCC(=O)O

Target: T1, Kras and SOS1 (biotin-tagged human Kras loaded with GDP, His-tagged human SOS1) (Homo sapiens, UniProt P01116, G12D)
T1 construct: made in house; host or cells: E. coli (stated for Kras only)
T1 sequence (P01116 1-188 isoform P01116-2 G12D): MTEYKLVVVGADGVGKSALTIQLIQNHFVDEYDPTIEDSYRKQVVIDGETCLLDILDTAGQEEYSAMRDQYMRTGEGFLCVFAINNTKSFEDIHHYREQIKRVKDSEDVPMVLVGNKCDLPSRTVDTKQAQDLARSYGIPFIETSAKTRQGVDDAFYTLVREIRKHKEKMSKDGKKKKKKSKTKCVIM
Test: Protein-protein interaction inhibition between Kras and SOS1 (KrasGl2D-SOS PPI) using AlphaScreen
Assay type: binding
Details: AlphaScreen; biotin-tagged human Kras loaded with GDP, His-tagged human SOS1; read-out: KRAS G12D-SOS PPI IC50
Method in brief: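 Energy transfer from nickel-chelate donor beads bound to His-SOS1 to streptavidin acceptor beads bound to biotin-Kras, expressed in E. coli and loaded with GDP after purification, was monitored. Donors were excited at 680 nm; singlet oxygen reaching acceptors gave emission read at 520-620 nm.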

Row | SMILES | IC50
1 | CCCC[C@@H]1NC(=O)[C@H](Cc2cccc(I)c2)NC(=O)CN(C)C(=O)[C@H](Cc2ccc(Cl)cc2)N(C)C(=O)CN(C)C(=O)CN(C)C(=O)[C@H]([C@@H](C)CC)NC(=O)[C@H](CC(C)C)N(C)C(=O)C[C@@H](C(=O)N2CCCCC2)N(C)C(=O)[C@H](CC(C)C)NC(=O)[C@H](Cc2ccccc2OC)N(C)C1=O [Compound 259] ([NMeL]I[Sar][Sar][NMePhe(4-Cl)][Sar][Phe(3-I)][Nle][NMePhe(2-OMe)]L[NMeD]-Piperidide; lactam N-11) | 21 nM
2 | CC[C@H](C)[C@@H]1NC(=O)[C@H](CC(C)C)N(C)C(=O)C[C@@H](C(=O)N2CCCCC2)N(C)C(=O)[C@H](C2CCCCC2)N(C)C(=O)[C@H](C)NC(=O)[C@@H]2CCCN2C(=O)[C@H](CCc2ccc(C(F)(F)F)c(Cl)c2)NC(=O)CN(C)C(=O)[C@H](CC2CCCCC2)N(C)C(=O)CN(C)C(=O)CN(C)C1=O [Compound 591] ([NMeL]I[Sar][Sar][NMeCha][Sar][hPhe(3-Cl-4-CF3)]PA[NMeChg][NMeD]-Piperidide; lactam N-11) | 2.1 nM
3 | CC[C@H](C)[C@@H]1NC(=O)[C@H](C)N(C)C(=O)C[C@@H](C(=O)N2CCCCC2)N(C)C(=O)[C@H]([C@@H](C)CC)N(C)C(=O)C2(CCCC2)NC(=O)[C@H](Cc2ccc(F)cc2)N(C)C(=O)[C@H](CCc2ccc(C(F)(F)F)c(Cl)c2)NC(=O)CN(C)C(=O)[C@H](Cc2ccc(C)cc2)N(C)C(=O)[C@@H]2CCN2C(=O)[C@H](C)N(C)C1=O [Compound 1885] ([NMeA]I[NMeA][Aze][NMePhe(4-Me)][Sar][hPhe(3-Cl-4-CF3)][NMePhe(4-F)][Ac5c][NMeI][NMeD]-Piperidide; lactam N-11) | 32 nM
4 | CC[C@H](C)[C@@H]1NC(=O)[C@H](CC(C)C)N(C)C(=O)C[C@@H](C(=O)N2CCCCC2)N(C)C(=O)[C@H](C2CCCCC2)N(C)C(=O)C2(CCCC2)NC(=O)[C@@H]2CCCN2C(=O)[C@H](CCc2ccc(C(F)(F)F)c(Cl)c2)NC(=O)CN(C)C(=O)[C@H](CCS(C)(=O)=O)N(C)C(=O)CN(C)C(=O)CN(C)C1=O [Compound 1094] ([NMeL]I[Sar][Sar][NMeMet(O2)][Sar][hPhe(3-Cl-4-CF3)]P[Ac5c][NMeChg][NMeD]-Piperidide; lactam N-11) | 2.2 nM
5 | CC[C@H](C)[C@@H]1NC(=O)[C@H](CC(C)C)N(C)C(=O)C[C@@H](C(=O)N2CCCCC2)N(C)C(=O)[C@H]([C@@H](C)CC)N(C)C(=O)C2(CCCC2)NC(=O)[C@@H]2CCCN2C(=O)[C@H](CCc2ccc(C(F)(F)F)c(Cl)c2)NC(=O)CN(C)C(=O)[C@H](Cc2ccc(C(F)(F)F)cc2)N(C)C(=O)[C@@H]2CCN2C(=O)[C@H](C)N(C)C1=O [Compound 630] ([NMeL]I[NMeA][Aze][NMePhe(4-CF3)][Sar][hPhe(3-Cl-4-CF3)]P[Ac5c][NMeI][NMeD]-Piperidide; lactam N-11) | 1.7 nM
6 | CC[C@H](C)[C@@H]1NC(=O)[C@H](C)N(C)C(=O)C[C@@H](C)NC(=O)[C@H](C2CCCC2)N(C)C(=O)C2(CCCC2)NC(=O)[C@@H]2CCCN2C(=O)[C@H](CCc2ccc(C(F)(F)F)c(Cl)c2)NC(=O)[C@@H](C)N(C)C(=O)[C@H](Cc2ccc(F)c(F)c2)N(C)C(=O)CN(C)C(=O)CN(C)C1=O [Compound 1075] (cyclo([Ac5c][NMeGly(cPent)][d(β3hA)][NMeA]I[Sar][Sar][NMePhe(3,4-F2)][dNMeA][hPhe(3-Cl-4-CF3)]P)) | 140 nM
7 | CC[C@H](C)[C@@H]1NC(=O)[C@H](C)N(C)C(=O)C[C@@H](C)NC(=O)[C@H](CC(C)C)N(C)C(=O)[C@H](Cc2ccccc2)N(C)C(=O)[C@@H]2CCCN2C(=O)[C@H](CCc2ccc(C(F)(F)F)cc2)NC(=O)CN(C)C(=O)[C@H]([C@@H](C)CC)N(C)C(=O)CN(C)C(=O)CN(C)C1=O [Compound 18] (cyclo(I[Sar][Sar][NMeI][Sar][hPhe(4-CF3)]P[NMeF][NMeL][d(β3hA)][NMeA])) | 230 nM
8 | CC[C@H](C)[C@@H]1NC(=O)[C@H](C)N(C)C(=O)C[C@@H](C(=O)N2CCCCC2)N(C)C(=O)[C@H](C2CCCCC2)N(C)C(=O)C2(CCCC2)NC(=O)[C@@H]2CCCN2C(=O)[C@H](COCc2cccc(Cl)c2)NC(=O)CN(C)C(=O)[C@H](CC2CCCCC2)N(C)C(=O)CN(C)C(=O)CN(C)C1=O [Compound 2045] ([NMeA]I[Sar][Sar][NMeCha][Sar]S(X76)P[Ac5c][NMeChg][NMeD]-Piperidide; lactam N-11) | 15 nM
9 | CC[C@H](C)[C@@H]1NC(=O)[C@H](C)N(C)C(=O)C[C@@H](C(=O)N2CCCCC2)N(C)C(=O)[C@H](C(C)C)N(C)C(=O)[C@H](CC(F)(F)F)NC(=O)[C@H](CCN2CC(F)(F)C2)N(C)C(=O)[C@H](CCc2ccc(C(F)(F)F)c(Cl)c2)NC(=O)CN(C)C(=O)[C@H](CC2CCCCC2)N(C)C(=O)CN(C)C(=O)CN(C)C1=O [Compound 1104] ([NMeA]I[Sar][Sar][NMeCha][Sar][hPhe(3-Cl-4-CF3)][NMeDab(N,N-(CH2CF2CH2))][Abu(4,4,4-F3)][NMeV][NMeD]-Piperidide; lactam N-11) | 11 nM
